Experimental data published in US20260318831A1 (University of Cincinnati, priority 2023, published 2026).

Columns and labels:
[1] = system: HeLa cells; assay: CCK-8 cell viability and cytotoxicity assay; format: cell-based; settings: within 24 h incubation, 0~10 μM
Protocol: In some aspects, the probes of the present disclosure can be administered to living cells, either in vitro or in vivo. To take advantage of the absorption and emission spectra of PyQPMe, this probe was administered in high-resolution microscopy for living cells. The toxicity of PyQPMe was examined at first before characterizing its imaging properties. Cell Counting Kit-8 (CCK-8) was used to investigate the viability of HeLa cells stained with PyQPMe. […] Next, PyQPMe was characterized by Leica Stellaris Confocal Microscope in the LIGHTNING module for high-resolution imaging. […] The signal tended to be endolysosomes because endolysosomes have a low pH range from 4.7 to 6.3. […] Since low temperatures can inhibit endocytosis, experiments at a lower temperature were performed.
Cell viability and cytotoxicity assay. […] The viability was determined by adding 10 μL reagent from a cell counting kit-8 (CCK-8) (Dojindo Molecular Technologies, Inc.) and incubating at 37° C. for 1 h. CCK-8 solution was added to each well and the OD value for each well was read at wavelength 490 nm on a microplate reader (BioTek Instruments, Inc., USA). The interference of absorbance from PyQPMe at 490 nm was minimal compared to the CCK-8 reagent during measurement.

[2] = system: endolysosomes in HeLa cells; assay: Resolution limit in LIGHTNING confocal images; format: cell-based
Source text: The fluorescence images of PyQPMe were compared before and after the LIGHTNING module. […] To test the resolution limit of PyQPMe, confocal images were stochastically selected, and underlined the areas with luminescence in the images (FIG. 4A, 4C). The FWHMs (full width at half maximum) of these bright puncta fluorescence of PyQPMe-stained endolysosomes and later endosomes/lysosomes are down to 174 nm and 184 nm (FIG. 4B, 4D), respectively.
Leica Stellaris 8 Confocal imaging. High-resolution images were acquired on a commercial Leica Stellaris 8 Confocal Microscope under LIGHTNING mode. Laser powers were set at 10% intensity for 405 nm and 640 nm channels. The objective was 63×/1.4. High-resolution images were captured from the randomly selected field of view and analyzed with Leica LAS X and ImageJ software. All the images were exported on the Auto scale of the Leica LAS X software. Cells were seeded on glassed-bottomed cell dishes (MatTek) for 24 hours. Cells stained with PyQPMe (20 nM, 10 min) were treated with Wortmannin (1 μM, 24 h), CCCP ([…], 24 h), rapamycin (0.5 μM, 24 h), chloroquine (25 μM, 30 min), and NH4Cl (50 mM, 30 min). All PCC values were analyzed in the CellProfiler.

## CN1CCN(c2ccc(/C=C/c3ccc4cc(-c5ccncc5)ccc4[n+]3C)cc2)CC1 [PyQPMe, (E)-1-methyl-2-(4-(4-methylpiperazin-1-yl)styryl)-6-(pyridin-4-yl)quinolin-1-ium]
[1]
  effect on viability of HeLa cells: no effects on the viability of HeLa cells
[2]; PyQPMe-stained endolysosomes
  FWHM of puncta, endolysosomes: 174 nm
[2]; PyQPMe-stained late endosomes/lysosomes
  FWHM of puncta, late endosomes/lysosomes: 184 nm
